Measurements published in patent publication US6608086B2, “Dihydropyridines and new uses thereof” (Synaptic Pharmaceutical Corporation, priority 1993, dated 2003).
Structures can show the parent of a compound that is named as a salt.

SMILES | melting point
COC(=O)C1=C(C)NC(C)=C(C(=O)N(C)CCCN2CCC(c3ccccc3)(c3ccccc3)CC2)C1c1ccc([N+](=O)[O-])cc1 (centres unmarked) (as salt: hydrochloride) (hydrate or solvate) [Example 46, hydrochloride hemihydrate] | 179 to 180 °C
CC(=O)C1=C(C)NC(C)=C(C(=O)NCCCN2CCC(c3ccccc3)(c3ccccc3)CC2)C1c1ccc([N+](=O)[O-])cc1 (centres unmarked) (as salt: hydrochloride) (hydrate or solvate) [Example 47, 5-Acetyl-1,4-dihydro-2,6-dimethyl-4-(4-nitrophenyl)-3-{N-[3-(4,4-diphenylpiperidin-1-yl)propyl]}carboxamidopyridine] | 173 to 174 °C
COC(=O)C1=C(C)NC(C)=C(C(=O)OCCCN2CCC(c3ccccc3)CC2)C1c1ccc([N+](=O)[O-])cc1 (centres unmarked) (as salt: hydrochloride) (hydrate or solvate) [Example 48, 1,4-Dihydro-5-methazycarbonyl-2,6-dimethyl-4-(4-nitrophenyl)-3-[3-(4-phenylpiperidin-1-yl)propoxy]}carbonylpyridine hydrochloride hydrate] | 139 to 140 °C
COC(=O)C1=C(C)NC(C)=C(C(=O)OCCCN2CCCCC2)C1c1ccc([N+](=O)[O-])cc1 (centres unmarked) (as salt: hydrochloride) (hydrate or solvate) [Example 50, 1,4-Dihydro-5-methoxycarbonyl-2,6-dimethyl-4-(4-nitrophenyl)-3-[3-(piperidin-1-yl)propoxy]carbonylpyridine hydrochloride etherate] | 128 to 129 °C
COC(=O)C1=C(C)NC(C)=C(C(=O)NCCCN2CCCCC2)C1c1ccc([N+](=O)[O-])cc1 (centres unmarked) (as salt: hydrochloride) (hydrate or solvate) [Example 51, 1,4-Dihydro-3-methoxycarbonyl-2,6-dimethyl-4-(4-nitrophenyl)-5-{N-[3-(piperidin-1-yl)propyl]}carboxamidopyridine hydrochloride etherate] | 150 to 150.5 °C
COC(=O)C1=C(C)NC(C)=C(C(=O)NCCN2CCC(c3ccccc3)(c3ccccc3)CC2)C1c1ccc([N+](=O)[O-])cc1 (centres unmarked) (as salt: hydrochloride) (hydrate or solvate) [Example 52, 1,4-Dihydro-3-methoxycarbonyl-2,6-dimethyl-4-(4-nitrophenyl)-5-{N-[2-(4,4-diphenylpiperidin-1-yl)ethyl]}carboxamidopyridine hydrochloride hemihydrate] | 170 to 171 °C
CC1=C(C(N)=O)C(c2ccc([N+](=O)[O-])cc2)C(C(=O)NCCN2CCC(c3ccccc3)(c3ccccc3)CC2)=C(C)N1 (centres unmarked) (as salt: hydrochloride) (hydrate or solvate) [Example 54, 5-Carboxamide-1,4-dihydro-2,6-dimethyl-4-(4-nitrophenyl)-3-{N-[2-(4,4-diphenylpiperidin-1-yl)ethyl]}carboxamidopyridine hydrochloride hydrate] | 193 to 194 °C
COC(=O)C1=C(C)NC(C)=C(C(=O)NCCCN2CCc3cc(OC)c(OC)cc3C2)C1c1ccc([N+](=O)[O-])cc1 (centres unmarked) (as salt: hydrochloride) (hydrate or solvate) [Example 57, 1,4-Dihydro-3-methoxycarbonyl-5-{N-[3-(1,2,3,4-tetrahydro-6,7-dimethoxyisoquinolin-2-yl)propyl]}carboxamido-2,6-dimethyl-4-(4-nitrophenyl)pyridine hydrochloride hydrate] | 161 to 162 °C
COC(=O)C1=C(C)NC(C)=C(C(=O)NCCCN2CCc3ccccc3C2)C1c1ccc([N+](=O)[O-])cc1 (centres unmarked) (as salt: hydrochloride) (hydrate or solvate) [Example 59, 1,4-Dihydro-5-{N-[3-(1,2,3,4-tetrahydroisoquinolin-2-yl)propyl]}carboxamido-3-methoxycarbonyl-2,6-dimethyl-4-(4-nitrophenyl)pyridine hydrochloride hydrate] | 145 to 146 °C
COC(=O)C1=C(C)NC(c2ccoc2)=C(C(=O)NCCCN2CCC(c3ccccc3)CC2)C1c1ccc([N+](=O)[O-])cc1 (centres unmarked) (as salt: hydrochloride) (hydrate or solvate) [Example 65, 2-(Furan-3-yl)-1,4-dihydro-5-methoxycarbonyl-6-methyl-4-(4-nitrophenyl)-5-{N-[3-(4-phenylpiperidin-1-yl)propyl]}carboxamidopyridine hydrochloride hydrate] | 205 to 210 °C (dec.)
CCC1=C(C(=O)NCCCN2CCC(c3ccccc3)CC2)C(c2ccc([N+](=O)[O-])cc2)C(C(=O)OC)=C(C)N1 (centres unmarked) (as salt: hydrochloride) (hydrate or solvate) [Example 74, 2-Ethyl-1,4-dihydro-5-methoxycarbonyl-6-methyl-4-(4-nitro)phenyl-3-(N-(3-(4-phenylpiperidin-1-yl)propyl)) carboxamidopyridine hydrochloride hydrate] | 209 to 214 °C (dec.)
COC(=O)C1=C(C)NC(c2ccccc2)=C(C(=O)NCCCN2CCC(c3ccccc3)(c3ccccc3)CC2)C1c1ccc([N+](=O)[O-])cc1 (centres unmarked) (as salt: hydrochloride) (hydrate or solvate) [Example 78, 1,4-Dihydro-5-methoxycarbonyl-6-methyl-4-(4-nitro)phenyl-2-phenyl-3-(N-(3-(4,4-diphenylpiperidin-1-yl)propyl))carboxamidopyridine hydrochloride hydrate] | 210 to 215 °C (dec.)
CCC1=C(C(N)=O)C(c2ccc([N+](=O)[O-])cc2)C(C(=O)NCCCN2CCC(O)(c3ccccc3)CC2)=C(CC)N1 (centres unmarked) (as salt: hydrochloride) (hydrate or solvate) [Example 100, 5-Carboxamido-2,6-diethyl-1,4-dihydro-3-{N-(3-(4-hydroxy-4-phenylpiperidin-1-yl)propyl]}carboxamido-4-(4-nitrophenyl)pyridine hydrochloride hydrate] | 165 °C (dec.)
CCC1=C(C(N)=O)C(c2ccc([N+](=O)[O-])cc2)C(C(=O)NCCCN2CCN(c3ccccc3)CC2)=C(CC)N1 (centres unmarked) (as salt: hydrochloride) (hydrate or solvate) [Example 104, 5-Carboxamido-2,6-diethyl-1,4-dihydro-4-(4-nitrophenyl)-3-{N-[3-(4-phenylpiperazin-1-yl)propyl]}carboxamido-pyridine hydrochloride hydrate] | 160 °C (dec.)
CCC1=C(C(N)=O)C(c2ccc([N+](=O)[O-])cc2)C(C(=O)NCCCN2CCC3(CC2)C(=O)NCN3c2ccccc2)=C(CC)N1 (centres unmarked) (as salt: hydrochloride) (hydrate or solvate) [Example 105, 5-Carboxamido-2,6-diethyl-1,4-dihydro-4-(4-nitrophenyl)-3-{N-[3-(1-phenyl-4-oxo-1,3,8-triazaspiro[4.3]decan-8-yl)propyl]}carboxamidopyridine hydrochloride hydrate] | 187 °C (dec.)
CCC1=C(C(N)=O)C(c2ccc([N+](=O)[O-])cc2)C(C(=O)NCCCN2CCC(C)(c3ccccc3)CC2)=C(CC)N1 (centres unmarked) (as salt: hydrochloride) (hydrate or solvate) [Example 106, 5-Carboxamido-2,6-diethyl-1,4-dihydro-3-{N-[3-(4-Methyl-4-phenylpiperidin-1-yl)propyl]}carboxamido-4-(4-nitrophenyl)pyridine hydrochloride hydrate] | 166 °C (dec.)
CC1=C(C#N)C(c2ccc([N+](=O)[O-])cc2)C(C(=O)NCCCN2CCC(c3ccccc3)(c3ccccc3)CC2)=C(C)N1 (centres unmarked) (as salt: hydrochloride) [Example 37] | 252 °C (dec.)
COc1cc2c(cc1OC)CN(CCCNC(=O)C1=C(C)NC(C)=C(C(N)=O)C1c1ccc([N+](=O)[O-])cc1)CC2 (centres unmarked) (as salt: hydrochloride) [Example 58, 5-Carboxamido-1,4-dihydro-3-{N-[3-(1,2,3,4-tetrahydro-6,7-dimethoxyisoquinolin-2-yl)propyl]}carboxamido-2,6-dimethyl-4-(4-nitrophenyl)pyridine hydrochloride] | 180 to 181 °C
CCC1=C(C(=O)NC2CCN(Cc3ccccc3)CC2)C(c2ccc([N+](=O)[O-])cc2)C(C(=O)OC)=C(C)N1 (centres unmarked) (as salt: hydrochloride) [Example 75, 2-Ethyl-1,4-dihydro-5-methoxycarbonyl-6-methyl-4-(4-nitro)phenyl-3-(N-(N-phenylmethyl)piperidin-4-yl)carboxamidopyridine hydrochloride] | 221 to 224 °C (dec.)
CCC1=C(C(=O)NCCCN2CCC(c3ccccc3)(c3ccccc3)CC2)C(c2ccc([N+](=O)[O-])cc2)C(C(N)=O)=C(C)N1 (centres unmarked) (as salt: hydrochloride) [Example 81, 5-carboxamido-2-ethyl-1,4-dihydro-6-methyl-4-(4-nitro)phenyl-3-(N-(3-(4,4-diphenylpiperidin-1-yl)propyl))carboxamidopyridine hydrochloride] | 243 to 248 °C (dec.)
COc1ccc(C2(c3ccccc3)CCN(CCCNC(=O)C3=C(C)NC(C)=C(C(N)=O)C3c3ccc([N+](=O)[O-])cc3)CC2)cc1 (centres unmarked) (as salt: hydrochloride) [Example 98, 5-Carboxamido-1,4-dihydro-3-{N-[3-(4-(4-methoxyphenyl)-4-phenylpiperidin-1-yl)propyl]}carboxamido-2,6-dimethyl-4-(4-nitrophenyl)pyridine hydrochloride] | 185 °C (dec.)
CCC1=C(C(N)=O)C(c2ccc([N+](=O)[O-])cc2)C(C(=O)NCCCN2CCC(c3ccc(OC)cc3)(c3ccc(OC)cc3)CC2)=C(CC)N1 (centres unmarked) (as salt: hydrochloride) [Example 103, 5-Carboxamido-2,6-diethyl-1,4-dihydro-3-{N-[3-(4,4-bis-(4-methoxyphenyl)piperidin-1-yl)propyl]}carboxamido}-4-(4-nitrophenyl)pyridine hydrochloride] | 175 °C (dec.)
CCC1=C(C(=O)NCCCN2CCC(c3ccccc3)(c3ccccc3)CC2)C(c2ccc([N+](=O)[O-])cc2)C(C(=O)NC)=C(COCCN=[N+]=[N-])N1 (centres unmarked) (as salt: hydrochloride) [Example 151, 2-((2-Azidoethyl)oxy)methyl-6-ethyl-1,4-dihydro-3-(N-methyl)carboxamido-4-(4-nitro)phenyl-5-(N-(3-(4,4-diphenylpiperidin-1-yl)propyl))carboxamidopyridine] | 200 °C (dec.)
